Data on 10 compounds can be found in PubChem BioAssay AID1745844 (Carcinogenic Potency Database (CPDB), 2022).

Active and inactive are the calls of the source. The rule behind the calls is not given here.

The data set deals with rodent lifetime carcinogenesis bioassay, tumor incidence TD50. Description: carcinogenic potency in animals, long-term in vivo studies, CPDB compilation (AID 1745844).
Setting [1] is: mouse, strain Ha/ICR, females, i.p., site: lung, lesion: papillary tumor, dosed 64 weeks, study length 64 weeks.

For `C[C@H](CCc1ccccc1)NC[C@H](O)c1ccc(O)c(C(N)=O)c1`, the carcinogen call is “negative (inactive)” (rat, strain Sprague-Dawley, females, in feed, site: heart, lesion: endocardial sarcoma, dosed 104 weeks, study length 104 weeks) and “negative (inactive)” (rat, strain Sprague-Dawley, males, in feed, site: heart, lesion: endocardial sarcoma, dosed 104 weeks, study length 104 weeks).
Regarding `COc1ccc([C@@H]2CC(=O)c3c(O)cc(O[C@@H]4O[C@H](CO[C@@H]5O[C@@H](C)[C@H](O)[C@@H](O)[C@H]5O)[C@@H](O)[C@H](O)[C@H]4O)cc3O2)cc1OC`, the carcinogen call (mouse, strain B6C3F1, females, in feed, site: liver, lesion: hemangioma, dosed 96 weeks, study length 104 weeks) is “negative (inactive)”; the carcinogen call (mouse, strain B6C3F1, females, in feed, site: lung, lesion: adenoma, dosed 96 weeks, study length 104 weeks) is “negative (inactive)”; the carcinogen call (mouse, strain B6C3F1, males, in feed, site: liver, lesion: hemangioma, dosed 96 weeks, study length 104 weeks) is “negative (inactive)”; the carcinogen call (mouse, strain B6C3F1, males, in feed, site: lung, lesion: adenocarcinoma, dosed 96 weeks, study length 104 weeks) was “negative (inactive)”; the carcinogen call (mouse, strain B6C3F1, males, in feed, site: lung, lesion: adenoma, dosed 96 weeks, study length 104 weeks) was “negative (inactive)”. Further, the TD50 (commonly the 50% point of the dose-response relation for the toxic effect studied) was 887000 mg/kg/day (inactive) (mouse, strain B6C3F1, females, in feed, site: liver, lesion: hemangiosarcoma, dosed 96 weeks, study length 104 weeks); 194000 mg/kg/day (inactive) (mouse, strain B6C3F1, females, in feed, site: liver, lesion: hepatocellular carcinoma, dosed 96 weeks, study length 104 weeks); 379000 mg/kg/day (inactive) (mouse, strain B6C3F1, females, in feed, site: liver, lesion: hyperplastic nodule, dosed 96 weeks, study length 104 weeks); 146000 mg/kg/day (inactive) (mouse, strain B6C3F1, males, in feed, site: liver, lesion: hepatocellular carcinoma, dosed 96 weeks, study length 104 weeks); 416000 mg/kg/day (inactive) (mouse, strain B6C3F1, males, in feed, site: liver, lesion: hyperplastic nodule, dosed 96 weeks, study length 104 weeks).
With `CN1CCCC1=O`, the TD50 is, setting by setting: (mouse, strain B6C3F1, females, in feed, site: any site (literature study), lesion: benign tumor, dosed 78 weeks, study length 78 weeks) 3440 mg/kg/day; (mouse, strain B6C3F1, females, in feed, site: any site (literature study), lesion: malignant tumor, dosed 78 weeks, study length 78 weeks) 14900 mg/kg/day; (mouse, strain B6C3F1, females, in feed, site: liver, lesion: hepatocellular adenoma, dosed 78 weeks, study length 78 weeks) 3320 mg/kg/day; (mouse, strain B6C3F1, females, in feed, site: liver, lesion: hepatocellular carcinoma, dosed 78 weeks, study length 78 weeks) 7330 mg/kg/day; (mouse, strain B6C3F1, males, in feed, site: any site (literature study), lesion: benign tumor, dosed 78 weeks, study length 78 weeks) 1630 mg/kg/day; (mouse, strain B6C3F1, males, in feed, site: any site (literature study), lesion: malignant tumor, dosed 78 weeks, study length 78 weeks) 2270 mg/kg/day. Moreover, the TD50 is 1760 mg/kg/day (mouse, strain B6C3F1, males, in feed, site: liver, lesion: hepatocellular adenoma, dosed 78 weeks, study length 78 weeks); 1480 mg/kg/day (mouse, strain B6C3F1, males, in feed, site: liver, lesion: hepatocellular carcinoma, dosed 78 weeks, study length 78 weeks); 4080 mg/kg/day (mouse, strain B6C3F1, males, in feed, site: lung, lesion: adenoma, dosed 78 weeks, study length 78 weeks); 6060 mg/kg/day (inactive) (rat, strain Charles River CD (Sprague-Dawley), males, in feed, site: any site (literature study), lesion: several types, types named in the paper, dosed 104 weeks, study length 104 weeks); 58500 mg/kg/day (inactive) (rat, strain Charles River CD (Sprague-Dawley), males, in feed, site: liver, lesion: several types, types named in the paper, dosed 104 weeks, study length 104 weeks). Moreover, the carcinogen call is “negative (inactive)” (rat, strain Charles River CD (Sprague-Dawley), females, in feed, site: any site (literature study), lesion: several types, types named in the paper, dosed 104 weeks, study length 104 weeks); “negative (inactive)” (rat, strain Charles River CD (Sprague-Dawley), females, in feed, site: liver, lesion: several types, types named in the paper, dosed 104 weeks, study length 104 weeks); “negative (inactive)” (rat, strain Charles River CD (Sprague-Dawley), females, inhaled, site: liver, lesion: one or several types, types not named, dosed 104 weeks, study length 104 weeks); “negative (inactive)” (rat, strain Charles River CD (Sprague-Dawley), males, inhaled, site: liver, lesion: one or several types, types not named, dosed 104 weeks, study length 104 weeks).
`CC(C)(C)c1cc([N+](=O)[O-])cc([N+](=O)[O-])c1OS(C)(=O)=O` came in with a TD50 (rat, strain Sprague-Dawley, females, in feed, site: any site (literature study), lesion: several types, types named in the paper, dosed 52 weeks, study length 52 weeks) of 2.66 mg/kg/day.
As for `CCOC(=O)C(O)(c1ccc(Cl)cc1)c1ccc(Cl)cc1`, the TD50 (mouse, strain B6AKF1, females, oral dosing, site: any site (literature study), lesion: several types, types named in the paper, dosed 82 weeks, study length 82 weeks) was found to be 621 mg/kg/day; the TD50 (mouse, strain B6AKF1, females, oral dosing, site: lung, lesion: adenoma, dosed 82 weeks, study length 82 weeks) stood at 621 mg/kg/day; the TD50 (mouse, strain B6AKF1, males, oral dosing, site: any site (literature study), lesion: several types, types named in the paper, dosed 82 weeks, study length 82 weeks) was 72.8 mg/kg/day; the TD50 (mouse, strain B6AKF1, males, oral dosing, site: liver, lesion: hepatoma, dosed 82 weeks, study length 82 weeks) is 69.8 mg/kg/day; the TD50 (mouse, strain B6C3F1, females, in feed, site: any site (literature study), lesion: several types, types named in the paper, dosed 78 weeks, study length 90 weeks) worked out at 3930 mg/kg/day; the TD50 (mouse, strain B6C3F1, females, in feed, site: liver, lesion: hepatocellular adenoma + hepatocellular carcinoma + neoplastic nodule, dosed 78 weeks, study length 90 weeks) was 848 mg/kg/day. The TD50 (mouse, strain B6C3F1, females, in feed, site: liver, lesion: hepatocellular carcinoma, dosed 78 weeks, study length 90 weeks) is 848 mg/kg/day; the TD50 (mouse, strain B6C3F1, females, oral dosing, site: any site (literature study), lesion: several types, types named in the paper, dosed 82 weeks, study length 82 weeks) worked out at 302 mg/kg/day; the TD50 (mouse, strain B6C3F1, females, oral dosing, site: lung, lesion: adenoma, dosed 82 weeks, study length 82 weeks) was found to be 621 mg/kg/day; the TD50 (mouse, strain B6C3F1, males, in feed, site: any site (literature study), lesion: several types, types named in the paper, dosed 78 weeks, study length 90 weeks) was 256 mg/kg/day; the TD50 (mouse, strain B6C3F1, males, in feed, site: liver, lesion: hepatocellular adenoma + hepatocellular carcinoma + neoplastic nodule, dosed 78 weeks, study length 90 weeks) came to 235 mg/kg/day; the TD50 (mouse, strain B6C3F1, males, in feed, site: liver, lesion: hepatocellular carcinoma, dosed 78 weeks, study length 90 weeks) is 235 mg/kg/day. For the same compound, the TD50 reads like this: (mouse, strain B6C3F1, males, oral dosing, site: any site (literature study), lesion: several types, types named in the paper, dosed 82 weeks, study length 82 weeks) 31.7 mg/kg/day; (mouse, strain B6C3F1, males, oral dosing, site: liver, lesion: hepatoma, dosed 82 weeks, study length 82 weeks) 43.8 mg/kg/day; (rat, strain Osborne-Mendel, females, in feed, site: adrenal gland, lesion: cortical adenoma, dosed 78 weeks, study length 110 weeks) 490 mg/kg/day (inactive); (rat, strain Osborne-Mendel, males, in feed, site: adrenal gland, lesion: cortical adenoma, dosed 78 weeks, study length 110 weeks) 186 mg/kg/day (inactive); (rat, strain Osborne-Mendel, males, in feed, site: liver, lesion: hepatocellular adenoma + hepatocellular carcinoma + neoplastic nodule, dosed 78 weeks, study length 110 weeks) 1600 mg/kg/day. For the same compound, where the note is “rat, strain Carworth Farms, females, in feed, site: mammary gland, lesion: adenofibroma, dosed 104 weeks, study length 104 weeks”, the carcinogen call was “negative (inactive)”.
For the compound `S=C(NC1CCCCC1)NC1CCCCC1`, the TD50 by setting is: (mouse, strain B6C3F1, females, in feed, site: any site (literature study), lesion: several types, types named in the paper, dosed 109 weeks, study length 103 weeks) 122000 mg/kg/day (inactive); (mouse, strain B6C3F1, females, in feed, site: lung, lesion: alveolar/bronchiolar adenoma + alveolar/bronchiolar carcinoma, dosed 109 weeks, study length 103 weeks) 1.11e+08 mg/kg/day; (rat, strain Fischer 344, males, in feed, site: any site (literature study), lesion: several types, types named in the paper, dosed 109 weeks, study length 109 weeks) 3910 mg/kg/day; (rat, strain Fischer 344, males, in feed, site: liver, lesion: hepatocellular adenoma + hepatocellular carcinoma + neoplastic nodule, dosed 109 weeks, study length 109 weeks) 15600 mg/kg/day; (rat, strain Fischer 344, males, in feed, site: skin, lesion: basal-cell carcinoma, dosed 109 weeks, study length 109 weeks) 26100 mg/kg/day; (rat, strain Fischer 344, males, in feed, site: thyroid gland, lesion: c-cell adenoma, dosed 109 weeks, study length 109 weeks) 5480 mg/kg/day (inactive). Besides, the TD50 (rat, strain Fischer 344, males, in feed, site: thyroid gland, lesion: follicular-cell adenoma + follicular-cell carcinoma, dosed 109 weeks, study length 109 weeks) was determined as 7410 mg/kg/day. Besides, the carcinogen call is “negative (inactive)” (mouse, strain B6C3F1, males, in feed, site: any site (literature study), lesion: several types, types named in the paper, dosed 109 weeks, study length 103 weeks) and “negative (inactive)” (rat, strain Fischer 344, females, in feed, site: any site (literature study), lesion: several types, types named in the paper, dosed 109 weeks, study length 109 weeks).
As for `CN[C@H]1CC[C@@H](c2ccc(Cl)c(Cl)c2)c2ccccc21`, the TD50 runs as follows: (mouse, strain Charles River CD1, females, in feed, site: lung, lesion: alveolar/bronchiolar adenoma, dosed 104 weeks, study length 104 weeks) 247 mg/kg/day (inactive); (mouse, strain Charles River CD1, males, in feed, site: liver, lesion: hepatocellular adenoma, dosed 104 weeks, study length 104 weeks) 147 mg/kg/day; (mouse, strain Charles River CD1, males, in feed, site: liver, lesion: hepatocellular carcinoma, dosed 104 weeks, study length 104 weeks) 425 mg/kg/day; (rat, strain Long-Evans, females, in feed, site: thyroid gland, lesion: follicular-cell adenoma, dosed 104 weeks, study length 104 weeks) 352 mg/kg/day (inactive).
As to `Cl[C@@H]1OCCO[C@H]1Cl`, the TD50 under setting [1] is 7.04 mg/kg/day.
For `O=C1C=C(N2CC2)C(=O)C(N2CC2)=C1N1CC1`, the TD50 (rat, strain BR 46, males, i.v., site: any site (literature study), lesion: benign tumor, dosed 52 weeks, study length 104 weeks) was 0.032 mg/kg/day; the TD50 (rat, strain BR 46, males, i.v., site: any site (literature study), lesion: malignant tumor, dosed 52 weeks, study length 104 weeks) was 0.00677 mg/kg/day; the TD50 (rat, strain BR 46, males, i.v., site: any site (literature study), lesion: several types, types named in the paper, dosed 52 weeks, study length 104 weeks) is 0.00504 mg/kg/day; the TD50 (rat, strain BR 46, males, i.v., site: liver, lesion: liver-cell carcinoma, dosed 52 weeks, study length 104 weeks) is 0.0653 mg/kg/day.
As for `CN(C)C(=O)Cl`, the TD50 runs as follows: (hamster, strain Syrian Golden, males, inhaled, site: nasal cavity, lesion: squamous-cell carcinoma, dosed 112 weeks, study length 112 weeks) 0.625 mg/kg/day; (mouse, strain Ha/ICR, females, i.p., site: abdomen, lesion: sarcoma, dosed 64 weeks, study length 64 weeks) 5.37 mg/kg/day; (mouse, strain Ha/ICR, females, i.p., site: abdomen, lesion: several types, types named in the paper, dosed 64 weeks, study length 64 weeks) 4.59 mg/kg/day; under setting [1], 6.65 mg/kg/day.
